Values of other authors as cited in patent US5900414A, “Methods for administering integrin receptor antagonists” (Merck & Co., Inc., priority 1997, dated 1999).
Blank lines part the entries; values can stand above or below the compound they belong to. Positions of bridges follow the written chain, without caps; N, C: chain ends. Non-standard residues stand in square brackets, D forms with d. Residues, ends and D or L forms follow the SMILES beside them. hArg = N=C(N)NCCCC[C@H](N)C(=O)O; Mpa = O=C(O)CCS

Legend:
[1] = prodrug

- oral bioavailability [1]: high oral bioavailability
Structure (SMILES): C#C[C@H](CC(=O)OCC)NC(=O)CCC(=O)Nc1ccc(C(=N)N)cc1 [SC54684]

Structure (SMILES): CCCCS(=O)(=O)N[C@@H](Cc1ccc(OCCCCC2CCNCC2)cc1)C(=O)O [MK-383]
- selectivity for GPIIb/IIIa (GPIIb/IIIa): selective for GPIIb/IIIa

Structure (SMILES): N=C(N)c1ccc(C(=O)N[C@@H](Cc2ccc(O)cc2)C(=O)N2CCC(OCC(=O)O)CC2)cc1 [Ro 44-9883]
- selectivity for GPIIb/IIIa (GPIIb/IIIa): selective for GPIIb/IIIa

Structure (SMILES): N=C(N)NCCCC[C@@H]1NC(=O)CCSSC[C@@H](C(N)=O)NC(=O)[C@@H]2CCCN2C(=O)[C@H](Cc2c[nH]c3ccccc23)NC(=O)[C@H](CC(=O)O)NC(=O)CNC1=O [Integrilin] ([Mpa][hArg]GDWPC-NH2; disulfide 1-7)
- ligand binding to GPIIa/IIIa (GPIIa/IIIa): inhibits ligand binding
- effect on ligand binding to αv β3 (αv β3): very little effect
